Experimental data from BindingDB's records for patent USRE49517 (Janssen Pharmaceuticals, 2023).

Biological target: Potassium voltage-gated channel subfamily H member 2 (Homo sapiens, UniProt Q12809)
Test: Inhibition of Specific Binding to the hERG Receptor (HERGBD)
Experimental: Binding was terminated by filtration of the incubated membrane preparations using Filtermat B (Pharmacia, Uppsala Sweden) and a Micro Cell Harvester (Skatron, Lier, Norway). The Filtermat B had been presoaked with 1% polyethylen imine and carefully washed with 0.05 M Tris/HCl-buffer pH=7.7 after the filtration to separate free and bound radioactivity. […] The optimal amount of membrane preparation in the assay was determined and optimized for each membrane preparation separately in front of using the membranes in compound testing. […] For pipetting of the incubation mixture we routinely use the robot Biomek2000 (Fa. Beckman).

Potassium voltage-gated channel subfamily H member 2, sequence (Q12809 whole entry): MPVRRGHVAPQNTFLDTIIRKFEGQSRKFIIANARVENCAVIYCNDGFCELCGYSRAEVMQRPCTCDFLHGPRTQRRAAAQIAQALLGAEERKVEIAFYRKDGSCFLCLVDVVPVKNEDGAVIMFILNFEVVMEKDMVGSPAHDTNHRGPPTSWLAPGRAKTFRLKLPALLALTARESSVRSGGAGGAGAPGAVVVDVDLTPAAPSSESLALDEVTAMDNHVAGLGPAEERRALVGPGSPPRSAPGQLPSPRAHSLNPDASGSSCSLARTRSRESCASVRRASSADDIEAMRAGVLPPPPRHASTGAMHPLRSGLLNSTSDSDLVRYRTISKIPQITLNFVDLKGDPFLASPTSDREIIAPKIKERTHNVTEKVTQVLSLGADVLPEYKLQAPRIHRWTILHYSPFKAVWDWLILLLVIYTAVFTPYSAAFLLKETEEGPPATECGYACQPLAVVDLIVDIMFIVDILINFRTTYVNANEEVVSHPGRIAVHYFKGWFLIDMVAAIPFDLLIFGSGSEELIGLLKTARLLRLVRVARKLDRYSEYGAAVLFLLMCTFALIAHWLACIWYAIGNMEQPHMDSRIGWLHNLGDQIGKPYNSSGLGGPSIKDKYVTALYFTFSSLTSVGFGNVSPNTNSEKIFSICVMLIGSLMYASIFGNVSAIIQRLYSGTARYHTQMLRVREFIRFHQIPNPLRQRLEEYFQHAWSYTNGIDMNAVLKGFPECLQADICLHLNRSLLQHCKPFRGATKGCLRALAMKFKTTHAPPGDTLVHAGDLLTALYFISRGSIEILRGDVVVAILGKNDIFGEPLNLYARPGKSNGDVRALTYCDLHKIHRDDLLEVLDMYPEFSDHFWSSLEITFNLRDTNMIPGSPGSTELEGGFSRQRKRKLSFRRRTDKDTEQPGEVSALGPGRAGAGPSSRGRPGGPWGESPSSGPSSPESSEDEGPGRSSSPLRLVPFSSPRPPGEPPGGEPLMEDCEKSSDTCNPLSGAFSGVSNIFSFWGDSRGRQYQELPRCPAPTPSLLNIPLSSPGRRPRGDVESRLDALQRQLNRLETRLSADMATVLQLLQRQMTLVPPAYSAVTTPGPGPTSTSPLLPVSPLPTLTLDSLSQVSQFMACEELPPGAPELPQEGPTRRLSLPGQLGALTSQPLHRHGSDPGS

Work on `COc1cc(Cl)ccc1-c1cnn(Cc2ccn(C)n2)c1` [USRE49517, Example 67] yielded an IC50 of 63.3 µM.
